{
  "source": "paper PMC10357929",
  "about": "(Journal of the American Chemical Society, 2023)",
  "key": {"BxPC3 cells": {"tested_on": "BxPC3 cells", "test": "Clonogenic assay, BxPC3", "format": "cell-based", "details": "1, 3, 10 μM, 14 days; compared to PK9328 and compound 33"}, "NUGC-3 cells": {"tested_on": "NUGC-3 cells", "test": "Clonogenic assay, NUGC-3", "format": "cell-based", "details": "1, 3, 10 μM, 14 days; compared to PK9328 and compound 33"}, "BxPC3 (p53Y220C/−) cells": {"tested_on": "BxPC3 (p53Y220C/−) cells", "details": "for GI50: 72 h"}, "[1]": {"tested_on": "other bromodomain-containing proteins", "test": "BromoMelt profiling against other bromodomain-containing proteins", "details": "10 μM, duplicates"}, "p53Y220C [2]": {"molecular_target": "T1, p53Y220C (Homo sapiens, UniProt P04637, Y220C)", "test": "Western blot / FLAG-IP of p53K382ac level in NCI-H1299", "format": "cell-based"}, "[3]": {"tested_on": "NUGC-3 (p53Y220C/+) cells", "details": "72 h"}, "p53Y220C [4]": {"molecular_target": "T1, p53Y220C", "test": "Western blot of p53K382ac level in NUGC-3 cells", "format": "cell-based", "details": "10 μM, 24 h"}, "[5]": {"tested_on": "p53 WT U-2OS cancer cells", "test": "Cell viability assay", "format": "cell-based", "details": "72 h; for inhibition of cell growth at the highest concentration tested: 10 μM"}, "NCI-H1299 p53-null cells [6]": {"tested_on": "NCI-H1299 p53-null cells", "test": "Western blot of p53K382ac level in NCI-H1299 p53-null cells", "format": "cell-based", "details": "0, 1, 3, 10 μM, 24 h"}, "p53Y220C and p300": {"molecular_target": "p53Y220C and p300 (Homo sapiens, UniProt P04637+Q09472, Y220C)", "test": "p53-FLAG pull-down of p53Y220C-p300 ternary complex", "format": "cell-based", "details": "24 h"}, "NCI-H1299 p53-null cells [7]": {"tested_on": "NCI-H1299 p53-null cells", "test": "Cell viability assay", "format": "cell-based", "details": "72 h"}, "p53Y220C [8]": {"molecular_target": "T1, p53Y220C", "test": "Western blot of p53K382ac level in BxPC3 cells", "format": "cell-based", "details": "10 μM, 24 h"}, "p53-target genes [9]": {"tested_on": "p53-target genes", "test": "RNA-seq in NCI-H1299 p53-null and p53Y220C cells", "format": "cell-based, human", "details": "10 μM, 24 h"}, "p53-target genes [10]": {"tested_on": "p53-target genes", "test": "RT-qPCR of p53-target genes in NCI-H1299 p53Y220C stable cells", "format": "cell-based", "details": "10 μM, 24 h; for increase in p21 mRNA expression: relative to DMSO"}, "PNT2 cells": {"tested_on": "PNT2 cells", "test": "Cytotoxicity in normal prostate cell line PNT2", "format": "cell-based", "details": "read-out: GI50 (cytotoxicity)"}, "p53Y220C [11]": {"molecular_target": "T1, p53Y220C", "details": "cited from earlier work"}, "[12]": {"details": "p300-siRNA 72 h, then compound 72 h"}},
  "note": "“Also recorded” adds a separate entry of the source.",
  "data": [
    {"compound": "CCn1c2ccc(CNCCOCCOCCOCCn3cc(COc4ccc(CCc5nc6cc(-c7c(C)noc7C)ccc6n5CCN5CCOCC5)cc4F)nn3)cc2c2ccc(-c3cc(C)cs3)cc21", "note": "[MS78]", "values": [
      {"measurement": "clonogenicity", "setting": "BxPC3 cells", "result": "marked reduction in clonogenicity"},
      {"measurement": "clonogenicity", "setting": "NUGC-3 cells", "result": "marked reduction in clonogenicity"},
      {"measurement": "GI50", "setting": "BxPC3 (p53Y220C/−) cells", "result": "3.3 ± 1", "unit": "µM"},
      {"measurement": "higher potency compared to the parent compound PK9328", "setting": "BxPC3 (p53Y220C/−) cells; GI50 in BxPC3 and NUGC-3", "result": "about 4 fold"},
      {"measurement": "selectivity over a panel of other BRD-containing proteins", "setting": "[1]", "result": "selective for the CBP/p300 BRD"},
      {"measurement": "K382 acetylation", "setting": "p53Y220C [2]; 0, 1, 3, 10 μM, 24 h, NCI-H1299 p53Y220C", "result": "significantly induced K382 acetylation"},
      {"measurement": "increase in p53K382ac level", "setting": "p53Y220C [2]; 10 μM, 6 h", "result": "about 2 fold"},
      {"measurement": "increase in p53K382ac level", "setting": "p53Y220C [2]; 10 μM, 24 h", "result": "about 4 fold"},
      {"measurement": "p53K382ac induction compared to compound 7", "setting": "p53Y220C [2]; 10 μM, 24 h", "result": "about 2 fold"},
      {"measurement": "p53Y220C K382 acetylation in p300 siRNA-treated cells", "setting": "p53Y220C [2]; p300 knockdown, NCI-H1299 (p53Y220C)", "result": "significantly diminished; also recorded: abolished"},
      {"measurement": "EC50", "setting": "p53Y220C [2]; read-out: ACE50 (the concentration at which 50% of p53Y220C is acetylated), 24 h, acetylation level at 10 μM MS78 as the maximum response", "result": "1.87 ± 0.3", "unit": "µM"},
      {"measurement": "GI50", "setting": "[3]", "result": "2.7 ± 0.5", "unit": "µM"},
      {"measurement": "increase in the p53K382ac level", "setting": "p53Y220C [4]", "result": "about 4 fold"},
      {"measurement": "inhibition of cell growth at the highest concentration tested", "setting": "[5]", "result": "30–40%"},
      {"measurement": "GI50", "setting": "[5]", "result": "> 10", "unit": "µM"},
      {"measurement": "K382 acetylation", "setting": "NCI-H1299 p53-null cells [6]", "result": "did not induce K382 acetylation"},
      {"measurement": "p53-p300 interaction (FLAG pull-down)", "setting": "p53Y220C and p300; NCI-H1299 p53-null cells", "result": "no interaction was observed"},
      {"measurement": "p53Y220C-p300 interaction (FLAG pull-down)", "setting": "p53Y220C and p300; NCI-H1299 p53Y220C cells", "result": "induced an interaction between p53Y220C and p300"},
      {"measurement": "cell growth inhibition", "setting": "NCI-H1299 p53-null cells [7]", "result": "did not induce any significant cell growth inhibition"},
      {"measurement": "increase in the p53K382ac level", "setting": "p53Y220C [8]", "result": "about 4 fold"},
      {"measurement": "expression of BAX, PUMA (BBC3), and NOXA (PMAIP1) genes", "setting": "p53-target genes [9]", "result": "no significant upregulation"},
      {"measurement": "expression of DDR genes such as ATM, ATR, and CHEK1/2", "setting": "p53-target genes [9]", "result": "downregulation"},
      {"measurement": "expression of heat shock protein genes such as HSPA5, HSP40 (DNAJB1), HSP1A1/B", "setting": "p53-target genes [9]", "result": "upregulation"},
      {"measurement": "effect on TIGAR, BAX, and PUMA (BBC3) genes", "setting": "p53-target genes [10]", "result": "little or modest effect"},
      {"measurement": "expression of p21 (CDKN1A) and Mdm2 genes", "setting": "p53-target genes [10]", "result": "less upregulation"},
      {"measurement": "increase in p21 mRNA expression", "setting": "p53-target genes [10]", "result": 8, "unit": "fold"},
      {"measurement": "cell growth inhibition", "setting": "NCI-H1299 p53Y220C cells; 72 h", "result": "concentration-dependently inhibited the cell growth"},
      {"measurement": "antiproliferative effect after knockdown of p300", "setting": "NCI-H1299 p53Y220C cells; [12]", "result": "abolished the antiproliferative effect"},
      {"measurement": "GI50", "setting": "PNT2 cells", "result": "> 10", "unit": "µM"}
    ]},
    {"compound": "CCn1c2ccc(CNC)cc2c2ccc(-c3cscn3)cc21", "note": "[PK9323]", "values": [
      {"measurement": "stabilizes p53Y220C with a melting temperature (Tm)", "setting": "p53Y220C [11]", "result": 3.1, "unit": "°C"}
    ]},
    {"compound": "CCn1c2ccc(CNC)cc2c2ccc(-c3cc(C)cs3)cc21", "note": "[PK9328, reference compound]", "values": [
      {"measurement": "GI50", "setting": "BxPC3 (p53Y220C/−) cells", "result": "13.9 ± 2.4", "unit": "µM"},
      {"measurement": "GI50", "setting": "[3]", "result": "12.6 ± 1.9", "unit": "µM"},
      {"measurement": "inhibition of cell growth at the highest concentration tested", "setting": "[5]", "result": "30–40%"},
      {"measurement": "GI50", "setting": "[5]", "result": "> 10", "unit": "µM"},
      {"measurement": "K382 acetylation", "setting": "NCI-H1299 p53-null cells [6]", "result": "did not significantly induce K382 acetylation"},
      {"measurement": "cell growth inhibition", "setting": "NCI-H1299 p53-null cells [7]", "result": "did not induce any significant cell growth inhibition"},
      {"measurement": "effect on TIGAR, BAX, and PUMA (BBC3) genes", "setting": "p53-target genes [10]", "result": "little or modest effect"},
      {"measurement": "expression of p21 (CDKN1A) and Mdm2 genes", "setting": "p53-target genes [10]", "result": "upregulated"},
      {"measurement": "increase in p21 mRNA expression", "setting": "p53-target genes [10]", "result": 12, "unit": "fold"},
      {"measurement": "reduction in the cell growth in p300-siRNA-treated cells", "setting": "NCI-H1299 p53Y220C cells; [12]", "result": "about 50%"},
      {"measurement": "GI50", "setting": "PNT2 cells", "result": "> 10", "unit": "µM"}
    ]}
  ]
}
